The text below walks through data of PubChem BioAssay (NCI).

Assay in all cases: NCI tumour cell line growth inhibition, 48 h
Test [1] concerns K-562 leukemia.
Test [2] relates to OVCAR-5 ovarian.
In test [3] the test system is SF-268 CNS.
Test [4] concerns HCT-116 colon.
The test system of test [5] is SK-MEL-2 melanoma.
Test [6] deals with MDA-MB-435.
For test [7], the system named is SF-295 CNS.
Test [8] deals with PC-3 prostate.
Test [9] has as its system MOLT-4 leukemia.
Test [10] relates to CAKI-1 renal.
Test [11] has as its system NCI-H226 lung.
In test [12] the test system is MDA-MB-231 breast.
In test [13] the test system is HCT-15 colon.
Test [14] relates to SNB-19 CNS.
In test [15] the test system is NCI-H522 lung.
In test [16] the test system is TK-10 renal.
In test [17] the test system is BT-549 breast.
The subject of test [18] is U251 CNS.
Test [19] relates to 786-0 renal.

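All cell lines were grown in 96-well plates and treated with compound for 48 hours. At the TGI there is no net growth.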 Bounds are passed on as bounds.

Regarding `COC1C(O)C(C)OC(OC2CCC3(C)C(CCC4C3C(O)CC3(C)C(C5=CC(=O)OC5)CCC43O)C2)C1O` (stereo not given), the TGI in [1] was determined as 5.28 µM; in test [2], 1.77 µM; in test [3], 0.532 µM; in [4] it was 0.533 µM; in test [5], 1.59 µM; in [6], 1.24 µM. Further, the TGI in test [7] was determined as 1.23 µM; in test [8] it was 5.17 µM; in test [9], 0.174 µM; in test [10], 0.469 µM; in test [11], 2.39 µM; in [12], 24.4 µM. Besides, the TGI worked out at 1.03 µM in test [13]; 2.04 µM in test [14]; 0.251 µM in test [15]; 1.57 µM in test [16]; 0.429 µM in [17].

`CC1(C)C2CCC(O)(C2)C1N` (stereo not given): the TGI in test [1], in [18], in test [2], in test [3], in test [4] and in test [5] was greater than 100 µM each time. In addition, the TGI in test [6], in test [7], in [8], in test [9], in [10] and in test [11] was greater than 100 µM throughout. In addition, the TGI in test [12], in [13], in [19], in test [14], in test [16] and in [17] was greater than 100 µM in each case.

As for `O=c1oc2ccc([N+](=O)[O-])cc2cc1Br`, the TGI in [1], in test [18], in test [2], in [3], in [4] and in [5] was greater than 100 µM each time. Also, the TGI in test [6], in test [7], in test [8], in [9], in test [10] and in test [11] was greater than 100 µM throughout. Also, the TGI in test [12], in test [19], in [14], in [15], in [16] and in test [17] was greater than 100 µM each time.

Turning to `CCO/C(Cc1ccc(Cl)cc1)=N/NC(N)=S`, the TGI in test [1], in test [18], in test [2], in test [4], in test [5] and in [6] was greater than 100 µM throughout. Besides, the TGI in test [7], in test [8], in test [9], in test [10], in test [11] and in test [12] was greater than 100 µM each time. The TGI in [13], in test [19], in test [14], in [16] and in test [17] was greater than 100 µM each time.

Consider `O=C(N/N=C/C=C/c1ccc([N+](=O)[O-])o1)c1ccc(C(=O)N/N=C/C=C/c2ccc([N+](=O)[O-])o2)cc1`, for which the TGI in [1] was greater than 93.5 µM; in [18] it was greater than 52.8 µM; in test [2] it was greater than 100 µM; in [3], greater than 58.5 µM; in test [4] it was 25.7 µM; in test [5] it was greater than 100 µM. The TGI is greater than 73.8 µM in test [6]; greater than 100 µM in test [7]; greater than 52.3 µM in test [8]; greater than 43.6 µM in [9]; greater than 90 µM in test [10]; greater than 100 µM in test [11]. The TGI was 97.3 µM in [12]; greater than 100 µM in test [13]; greater than 72.1 µM in [19]; greater than 100 µM in test [14]; 89 µM in [15]; greater than 69.7 µM in test [16]. In test [17], this compound displayed a TGI greater than 100 µM.

Take `Cc1ccc(N2C(N)=C(C#N)C(C#N)(C#N)C2c2ccccc2)cc1` (stereo not given): the TGI in [18] was found to be 31.6 µM; in test [2] it was 32.4 µM; in test [3] it was 65.9 µM; in [4], 14.4 µM; in [5], 38.2 µM; in test [6], 14.1 µM. For the same compound, the TGI was determined as 60.3 µM in test [7]; 44.9 µM in test [8]; 8.27 µM in [9]; 30.9 µM in [10]; 38.9 µM in [11]; 25.3 µM in [12]. Further, the TGI turned out to be 22.6 µM in test [13]; 30.3 µM in test [19]; 34.5 µM in test [14]; 21.5 µM in test [15]; 28 µM in test [16]; 23.5 µM in [17].

For `COC1=CC(=O)C2=C(C[C@@]3(C)C(=C2)C(CO)=CC[C@H]3O)C1=O`, the TGI amounted to 24 µM in [1]; 41.6 µM in test [18]; 54.5 µM in test [2]; 32.7 µM in test [3]; 40.8 µM in test [4]; 41.2 µM in test [6]. For the same compound, the TGI in [7] was 41.2 µM; in test [8] it was 69.1 µM; in test [9], 2.49 µM; in [10] it was greater than 100 µM; in [11] it was 29.2 µM; in test [12] it was 13.2 µM. The TGI in test [13] was 88.5 µM; in test [19], 38.1 µM; in test [14], greater than 100 µM; in test [16], greater than 100 µM; in test [17], 34 µM.

Turning to `CN(C)c1ccc(/C=C/c2cc(-c3ccccc3)[n+](C)n2-c2ccccc2)cc1`, the TGI in test [18] is greater than 33.8 µM; in [2] it was 30.8 µM; in [3], 4.77 µM; in test [4], 14.1 µM; in test [5], 0.953 µM; in test [6], 2.98 µM. In addition, the TGI in test [7] worked out at 16.2 µM; in [8], 3.27 µM; in [9], 3.41 µM; in [10] it was 13 µM; in test [11], 71 µM; in test [12], 17.2 µM. Further, the TGI came out at 14.5 µM in [13]; 23 µM in test [19]; 11.3 µM in [14]; 0.318 µM in [15]; 30.5 µM in test [16]; 0.613 µM in test [17].

As to `COc1cc(/C=N/NC2=NCCCCN2)ccc1O`, the TGI in test [1], in test [18], in [2], in [3], in test [4] and in test [5] was greater than 100 µM in each case. The TGI in [6], in test [7], in test [8], in test [9], in test [11] and in [12] was greater than 100 µM each time. The TGI in test [13], in test [19], in test [14], in test [15], in test [16] and in test [17] was greater than 100 µM throughout.

Take `CCCCOC(=O)c1cc(C(=CCC[C@H]2CC[C@@]3(C)[C@@H](CC[C@@H]4[C@@H]3CC[C@]3(C)[C@@H](C(C)CCCC(C)C)CC[C@@H]43)C2)c2cc(Cl)c(O)c(C(=O)OCCCC)c2)cc(Cl)c1O` (stereo not given in full): the TGI in test [1] is greater than 5 µM; in [18], greater than 50 µM; in test [3] it was greater than 50 µM; in test [4], greater than 50 µM; in test [5], greater than 50 µM; in test [6], greater than 50 µM. The TGI in test [8] was greater than 50 µM; in test [9] it was greater than 5 µM; in test [10], greater than 50 µM; in test [11] it was greater than 50 µM; in test [12] it was greater than 50 µM; in test [13], greater than 50 µM. Further, the TGI in test [19], in test [14] and in [17] was greater than 50 µM each time.

Turning to `C/C(Cc1ccc2c(c1)OCO2)=N\NC(=O)C(C)Sc1nnc(SC(C)C(=O)N/N=C(\C)Cc2ccc3c(c2)OCO3)s1` (stereo not given), the TGI in test [1], in test [18], in test [2], in test [3], in test [4] and in test [5] was greater than 100 µM in each case. The TGI in test [6], in [7], in test [8], in test [9], in test [10] and in test [11] was greater than 100 µM each time. Besides, the TGI in test [12], in test [13], in [19], in test [14], in test [16] and in test [17] was greater than 100 µM each time.

Turning to `Nc1nc(=S)n(-c2ccc(Cl)cc2)c2nc3ccccc3cc12`, the TGI in [1], in test [18], in test [2], in test [3], in [4] and in test [5] was greater than 100 µM in each case. Besides, the TGI in test [6], in [7], in test [8], in [10], in test [11] and in [12] was greater than 100 µM each time. The TGI is greater than 100 µM in test [13]; greater than 100 µM in test [19]; greater than 100 µM in test [14]; greater than 100 µM in test [15]; 98.3 µM in test [16]; 67.1 µM in test [17].

As to `CC1=NN(c2nc(N)nc(/C(C#N)=C\c3cccc([N+](=O)[O-])c3)n2)C(C)(C)C1`, the TGI is greater than 35.4 µM in test [1]; 38.4 µM in test [18]; greater than 100 µM in test [2]; greater than 65.1 µM in test [3]; greater than 42.1 µM in test [4]; greater than 29.9 µM in test [5]. Moreover, the TGI in [6] is greater than 26 µM; in test [7], 52 µM; in test [8], greater than 53.8 µM; in test [9] it was greater than 66.5 µM; in test [10], greater than 94.1 µM; in [11] it was greater than 42.7 µM. The TGI in test [12] is 25.1 µM; in test [13], greater than 47.6 µM; in [19] it was 32 µM; in [14] it was 88.5 µM; in [16], 58.8 µM; in [17], greater than 89.8 µM.

For the compound `O=C1NC(=S)NC(=O)C1=C/C=C/c1ccc([N+](=O)[O-])cc1`, the TGI in test [1] was greater than 100 µM; in test [18], 19.6 µM; in test [2] it was 40.2 µM; in test [3] it was 36.8 µM; in test [4] it was 37.2 µM; in [5] it was 30.9 µM. Besides, the TGI was determined as 28.3 µM in test [6]; 33.1 µM in test [7]; 32.2 µM in [8]; 16.6 µM in [9]; 30.8 µM in test [10]; 44.3 µM in [11]. Further, the TGI in [12] is 35.5 µM; in [13], 31.7 µM; in test [19], 34.5 µM; in test [14] it was 34 µM; in test [16] it was 22.5 µM; in [17] it was 25 µM.

Regarding `CN(CCCn1ccnc1[N+](=O)[O-])CCCn1ccnc1[N+](=O)[O-]`, the TGI in test [1], in test [18], in [2], in [3], in [4] and in test [5] was greater than 100 µM throughout. For the same compound, the TGI in [6], in [7], in [8], in [9], in test [10] and in [11] was greater than 100 µM each time. Further, the TGI in test [12], in [13], in test [19], in test [15], in test [16] and in test [17] was greater than 100 µM each time.
